Test results taken from paper PMC9021288 (Nature Communications, 2022).
Values joined by “and” are separate entries in the source; they are usually repeats but may differ in a detail not shown here. Identical values can stand only once.

What was measured:
[1] = tested on: P. falciparum NF54 female gametocytes; assay: Dual gamete formation assay, female; format: cell-based, Plasmodium falciparum; details: read-out: IC50 female gametocyte activation
Protocol: After a 48-h incubation, gamete formation was stimulated by a drop in temperature (from 37 °C to 26 °C), and the addition of xanthurenic acid (2.5 µM). At 20 min after induction, exflagellation was recorded by automated time-lapse microscopy. After data collection, the plate was returned to a 26 °C incubator and incubated for 24 h. Female gamete formation was assessed by live staining with a Cy3-labelled anti-Pfs25 monoclonal antibody (1:2222) and recorded by automated microscopy.

[2] = tested on: P. falciparum 3D7 trophozoite-infected RBCs, CoA pathway metabolites; assay: Metabolomics of treated infected RBCs (LC/MS); format: cell-based, Plasmodium falciparum
Protocol: P. falciparum metabolomics analysis was performed by LC/MS as previously described. Briefly, parasite cultures were tightly synchronized at the ring stage one cycle prior to extraction. Trophozoite cultures at 5-10% parasitemia were purified to >90% parasitemia by magnetic purification. Parasites were counted using a hemocytometer, aliquoted to 1 × 10^8 cells per condition in 5 ml medium and then placed into an incubator for 1 h to allow them to reach a metabolically stable state. […] Blank processing samples were also quenched in the same manner to assess background metabolite levels. The samples were centrifuged, the supernatant was collected in a new tube, dried using a nitrogen gas drying rack and stored at -80 °C until they were run on the LC/MS platform.
For each analytical run, a pooled sample was generated by combining equivalent volumes of each parasite sample to assess metabolite detection and run at the beginning, middle, and end of each analytical batch to detect any possible time-dependent sensitivity changes. The full metabolomics datasets are publicly available on the Metabolomics Workbench database under ST001985[76].

[3] = target: T1, panel of human receptors and channels (Homo sapiens, UniProt P0DMS8); format: binding; details: A3 (h) (agonist radioligand); Rep1, Rep2, Mean
T1 construct: purchased Eurofins CEREP
T1 sequence (P0DMS8 whole entry): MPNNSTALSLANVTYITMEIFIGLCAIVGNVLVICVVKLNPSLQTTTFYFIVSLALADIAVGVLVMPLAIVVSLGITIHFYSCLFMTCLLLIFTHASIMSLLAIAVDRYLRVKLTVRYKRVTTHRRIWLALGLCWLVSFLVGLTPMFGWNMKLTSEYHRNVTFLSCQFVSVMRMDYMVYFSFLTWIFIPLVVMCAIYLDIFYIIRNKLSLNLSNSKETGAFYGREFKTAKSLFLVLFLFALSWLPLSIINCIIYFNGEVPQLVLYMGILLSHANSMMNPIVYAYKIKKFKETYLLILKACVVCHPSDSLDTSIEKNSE

[4] = target: T2, panel of human receptors and channels (Homo sapiens, UniProt P32238); format: binding; details: CCK1 (CCKA) (h) (agonist radioligand); Rep1, Rep2, Mean
T2 construct: purchased Eurofins CEREP
T2 sequence (P32238 whole entry): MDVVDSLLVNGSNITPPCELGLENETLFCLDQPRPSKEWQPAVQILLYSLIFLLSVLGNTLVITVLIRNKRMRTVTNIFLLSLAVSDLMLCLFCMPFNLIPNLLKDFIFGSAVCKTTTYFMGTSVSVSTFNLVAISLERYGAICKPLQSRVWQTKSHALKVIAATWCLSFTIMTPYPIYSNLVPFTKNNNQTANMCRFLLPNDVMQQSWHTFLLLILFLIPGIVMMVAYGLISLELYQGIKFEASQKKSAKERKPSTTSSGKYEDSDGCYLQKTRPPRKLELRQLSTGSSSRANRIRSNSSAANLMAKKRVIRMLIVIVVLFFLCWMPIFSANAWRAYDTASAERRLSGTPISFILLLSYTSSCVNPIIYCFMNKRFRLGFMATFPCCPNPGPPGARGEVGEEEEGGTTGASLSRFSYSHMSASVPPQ

[5] = target: T3, panel of human receptors and channels (Homo sapiens, UniProt P43681); format: binding; details: N neuronal α4β2 (h) (agonist radioligand); Rep1, Rep2, Mean
T3 construct: purchased Eurofins CEREP
T3 sequence (P43681 27-627): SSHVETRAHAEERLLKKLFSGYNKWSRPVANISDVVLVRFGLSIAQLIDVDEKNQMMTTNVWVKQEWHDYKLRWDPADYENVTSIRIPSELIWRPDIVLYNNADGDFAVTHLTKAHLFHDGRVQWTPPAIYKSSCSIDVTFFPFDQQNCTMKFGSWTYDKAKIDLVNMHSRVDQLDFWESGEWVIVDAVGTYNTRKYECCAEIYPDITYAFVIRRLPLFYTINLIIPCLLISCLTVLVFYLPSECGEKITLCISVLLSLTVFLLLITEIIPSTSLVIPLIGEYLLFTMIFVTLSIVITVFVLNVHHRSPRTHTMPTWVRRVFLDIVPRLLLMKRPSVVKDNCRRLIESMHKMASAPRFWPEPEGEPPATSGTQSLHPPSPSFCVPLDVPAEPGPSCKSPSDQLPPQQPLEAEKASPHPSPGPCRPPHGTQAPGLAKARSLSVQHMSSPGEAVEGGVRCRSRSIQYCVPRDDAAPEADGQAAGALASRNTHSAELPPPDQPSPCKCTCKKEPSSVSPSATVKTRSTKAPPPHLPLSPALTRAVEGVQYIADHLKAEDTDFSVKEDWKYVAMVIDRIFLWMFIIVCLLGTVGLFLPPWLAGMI

[6] = target: T4, panel of human receptors and channels (Homo sapiens, UniProt P34981); format: binding; details: TRH1 (h) (agonist radioligand); Rep1, Rep2, Mean
T4 construct: purchased Eurofins CEREP

[7] = target: T5, panel of human receptors and channels (Homo sapiens, UniProt P06401); format: binding; details: PR (h) (agonist radioligand); Rep1, Rep2, Mean
T5 construct: purchased Eurofins CEREP

[8] = target: T6, panel of human receptors and channels (Homo sapiens, UniProt P30542); format: binding; details: A1 (h) (antagonist radioligand); Rep1, Rep2, Mean
T6 construct: purchased Eurofins CEREP

[9] = target: T7, panel of human receptors and channels (Homo sapiens, UniProt P23975); format: binding; details: norepinephrine transporter (h) (antagonist radioligand); Rep1, Rep2, Mean
T7 construct: purchased Eurofins CEREP
T7 sequence (P23975 whole entry): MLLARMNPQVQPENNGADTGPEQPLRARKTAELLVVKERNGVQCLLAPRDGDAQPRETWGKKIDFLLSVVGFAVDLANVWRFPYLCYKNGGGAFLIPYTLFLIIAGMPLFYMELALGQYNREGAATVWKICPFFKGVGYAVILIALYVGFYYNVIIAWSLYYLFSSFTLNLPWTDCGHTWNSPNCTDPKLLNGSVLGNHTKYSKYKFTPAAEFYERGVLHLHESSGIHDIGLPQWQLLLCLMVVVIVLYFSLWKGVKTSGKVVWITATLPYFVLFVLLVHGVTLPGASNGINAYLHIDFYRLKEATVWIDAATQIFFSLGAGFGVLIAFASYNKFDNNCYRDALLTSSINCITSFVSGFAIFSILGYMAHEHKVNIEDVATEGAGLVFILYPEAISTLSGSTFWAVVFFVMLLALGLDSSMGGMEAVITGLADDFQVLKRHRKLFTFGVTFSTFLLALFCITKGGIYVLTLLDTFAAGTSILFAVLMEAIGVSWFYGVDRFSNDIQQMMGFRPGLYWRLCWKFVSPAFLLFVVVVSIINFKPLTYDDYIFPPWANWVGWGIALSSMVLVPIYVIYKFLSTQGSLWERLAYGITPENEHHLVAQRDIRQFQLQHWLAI

[10] = target: T8, panel of human receptors and channels (Homo sapiens, UniProt P50052); format: binding; details: AT2 (h) (agonist radioligand); Rep1, Rep2, Mean
T8 construct: purchased Eurofins CEREP

[11] = target: T9, panel of human receptors and channels (Homo sapiens, UniProt P21554); format: binding; details: CB1 (h) (agonist radioligand); Rep1, Rep2, Mean
T9 construct: purchased Eurofins CEREP

[12] = target: T10, panel of human receptors and channels (Homo sapiens, UniProt P21728); format: binding; details: D1 (h) (antagonist radioligand); Rep1, Rep2, Mean
T10 construct: purchased Eurofins CEREP

[13] = target: T11, panel of human receptors and channels (Homo sapiens, UniProt P21917); format: binding; details: D4.4 (h) (antagonist radioligand); Rep1, Rep2, Mean
T11 construct: purchased Eurofins CEREP
T11 sequence (P21917 whole entry): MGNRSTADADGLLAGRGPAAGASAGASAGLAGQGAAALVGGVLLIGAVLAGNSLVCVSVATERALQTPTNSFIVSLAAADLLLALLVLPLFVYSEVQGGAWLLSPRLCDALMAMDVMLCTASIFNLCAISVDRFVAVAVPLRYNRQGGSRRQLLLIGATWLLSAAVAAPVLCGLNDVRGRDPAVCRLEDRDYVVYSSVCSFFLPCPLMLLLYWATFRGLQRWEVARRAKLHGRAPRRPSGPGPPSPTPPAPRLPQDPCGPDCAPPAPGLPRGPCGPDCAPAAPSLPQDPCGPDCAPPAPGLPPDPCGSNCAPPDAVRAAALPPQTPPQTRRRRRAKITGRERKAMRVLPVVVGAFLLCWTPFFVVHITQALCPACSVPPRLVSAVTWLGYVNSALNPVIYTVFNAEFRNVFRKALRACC

[14] = target: T12, panel of human receptors and channels (Homo sapiens, UniProt P37231); format: binding; details: PPARγ (h) (agonist radioligand); Rep1, Rep2, Mean
T12 construct: purchased Eurofins CEREP
T12 sequence (P37231 whole entry): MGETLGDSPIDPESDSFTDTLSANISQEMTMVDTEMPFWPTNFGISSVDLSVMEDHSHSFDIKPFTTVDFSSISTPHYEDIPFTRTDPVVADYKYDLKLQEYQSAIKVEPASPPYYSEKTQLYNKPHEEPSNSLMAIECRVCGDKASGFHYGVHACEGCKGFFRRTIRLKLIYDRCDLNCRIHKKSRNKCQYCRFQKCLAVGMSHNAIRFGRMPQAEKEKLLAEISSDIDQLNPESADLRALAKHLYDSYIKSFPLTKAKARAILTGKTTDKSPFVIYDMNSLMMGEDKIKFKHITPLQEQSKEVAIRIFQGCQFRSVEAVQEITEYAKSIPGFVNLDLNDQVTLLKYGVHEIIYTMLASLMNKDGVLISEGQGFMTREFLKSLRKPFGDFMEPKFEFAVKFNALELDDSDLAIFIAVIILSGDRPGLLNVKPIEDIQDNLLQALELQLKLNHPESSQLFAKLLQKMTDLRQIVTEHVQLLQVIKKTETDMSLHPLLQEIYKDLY

[15] = target: T13, panel of human receptors and channels (Homo sapiens, UniProt Q01959); format: binding; details: dopamine transporter (h) (antagonist radioligand); Rep1, Rep2, Mean
T13 construct: purchased Eurofins CEREP
T13 sequence (Q01959 whole entry): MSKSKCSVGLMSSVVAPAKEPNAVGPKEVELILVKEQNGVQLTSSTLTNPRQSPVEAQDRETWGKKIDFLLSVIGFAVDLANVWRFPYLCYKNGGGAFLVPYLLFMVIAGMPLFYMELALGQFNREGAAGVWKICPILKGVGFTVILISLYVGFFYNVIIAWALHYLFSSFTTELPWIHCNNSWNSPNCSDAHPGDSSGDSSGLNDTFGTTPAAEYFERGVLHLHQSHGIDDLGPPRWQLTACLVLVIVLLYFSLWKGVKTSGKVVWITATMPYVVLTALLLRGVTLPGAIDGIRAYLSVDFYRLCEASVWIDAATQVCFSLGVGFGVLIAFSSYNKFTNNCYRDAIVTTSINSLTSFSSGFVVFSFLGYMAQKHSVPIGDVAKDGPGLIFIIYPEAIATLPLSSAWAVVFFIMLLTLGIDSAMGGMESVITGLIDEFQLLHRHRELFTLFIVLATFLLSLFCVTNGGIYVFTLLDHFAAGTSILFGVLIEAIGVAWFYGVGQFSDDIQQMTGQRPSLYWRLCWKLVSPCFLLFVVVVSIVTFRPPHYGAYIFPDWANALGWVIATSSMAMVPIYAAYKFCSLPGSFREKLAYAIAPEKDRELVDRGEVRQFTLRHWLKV

[16] = target: T14, panel of human receptors and channels (Homo sapiens, UniProt P30411); format: binding; details: B2 (h) (agonist radioligand); Rep1, Rep2, Mean
T14 construct: purchased Eurofins CEREP
T14 sequence (P30411 whole entry): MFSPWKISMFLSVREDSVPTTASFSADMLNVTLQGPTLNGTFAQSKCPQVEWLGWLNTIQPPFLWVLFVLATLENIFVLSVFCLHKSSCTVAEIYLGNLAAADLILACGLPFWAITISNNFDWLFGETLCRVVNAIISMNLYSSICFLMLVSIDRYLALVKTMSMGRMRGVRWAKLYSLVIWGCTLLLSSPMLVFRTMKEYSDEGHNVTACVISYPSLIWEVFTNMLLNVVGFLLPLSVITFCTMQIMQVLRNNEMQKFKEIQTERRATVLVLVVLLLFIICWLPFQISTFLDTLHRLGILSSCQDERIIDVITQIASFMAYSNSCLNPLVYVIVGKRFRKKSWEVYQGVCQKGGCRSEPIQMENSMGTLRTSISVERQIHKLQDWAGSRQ

[17] = target: T15, panel of human receptors and channels (Homo sapiens, UniProt P07550); format: binding; details: β2 (h) (antagonist radioligand); Rep1, Rep2, Mean
T15 construct: purchased Eurofins CEREP
T15 sequence (P07550 whole entry): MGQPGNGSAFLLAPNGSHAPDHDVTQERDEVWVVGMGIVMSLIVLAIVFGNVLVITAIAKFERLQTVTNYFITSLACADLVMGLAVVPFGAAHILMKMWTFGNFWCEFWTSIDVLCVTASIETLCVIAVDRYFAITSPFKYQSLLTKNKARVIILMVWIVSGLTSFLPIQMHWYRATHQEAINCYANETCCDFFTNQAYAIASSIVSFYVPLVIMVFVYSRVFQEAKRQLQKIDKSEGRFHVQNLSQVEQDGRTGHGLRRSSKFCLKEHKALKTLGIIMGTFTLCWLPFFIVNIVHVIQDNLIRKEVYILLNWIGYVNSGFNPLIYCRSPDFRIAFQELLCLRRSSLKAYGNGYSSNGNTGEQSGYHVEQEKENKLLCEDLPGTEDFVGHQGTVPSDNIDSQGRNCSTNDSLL

[18] = target: T16, panel of human receptors and channels (Homo sapiens, UniProt P25101); format: binding; details: ETA (h) (agonist radioligand); Rep1, Rep2, Mean
T16 construct: purchased Eurofins CEREP
T16 sequence (P25101 21-427): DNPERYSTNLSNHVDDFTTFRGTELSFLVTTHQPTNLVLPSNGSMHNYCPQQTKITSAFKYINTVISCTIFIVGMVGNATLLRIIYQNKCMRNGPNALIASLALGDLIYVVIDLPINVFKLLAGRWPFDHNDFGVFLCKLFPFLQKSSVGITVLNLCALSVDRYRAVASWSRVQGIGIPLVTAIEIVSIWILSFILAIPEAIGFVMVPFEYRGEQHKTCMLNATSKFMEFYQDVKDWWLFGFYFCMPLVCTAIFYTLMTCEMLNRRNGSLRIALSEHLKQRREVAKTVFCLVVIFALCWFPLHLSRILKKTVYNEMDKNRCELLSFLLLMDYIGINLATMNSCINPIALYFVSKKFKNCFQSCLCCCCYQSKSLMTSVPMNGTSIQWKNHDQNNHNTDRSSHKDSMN

rat primary hepatocytes = assay: Primary hepatocyte viability (CellTiter-Blue), rat; format: cell-based; details: for %Viability: Rat primary hepatocytes
Protocol: Safety studies were performed by commercial services using their standard protocols. […] Genotoxicity was investigated using the Ames test (Bacterial Reverse Mutation Assay) (Covance Laboratories Ltd, North Yorkshire, England). In vitro mammalian cell micronucleus screening assay was studied in human peripheral blood lymphocytes (BioReliance Corporation, Rockville, USA). Cardiotoxicity was determined against the hERG channel in an automated patch clamp assay using the Qpatch or against the hNaV 1.5, hKV 1.5 and hCaV 1.2 using a manual patch-clamp technique (Metrion Biosciences, Cambridge, UK). Cytotoxicity in human and rat primary hepatocytes was assessed using the CellTiter-Blue assay performed by commercial services (KaLy-Cell). The viability of HepG2 cells was monitored through the addition of 1 mM resazurin. Following 6 h incubation, the relative amount of reduced resazurin was detected in a fluorimeter and compared to the assay controls (vehicle: 0.1% DMSO and positive control: 10 µM puromycin).

SMILES: C[C@@H](CNC(=O)[C@H](O)C(C)(C)CO)NC(=O)c1cc(F)c(F)cc1F [MMV693183]
- IC50 [1]: 12 nM
- Fold change 4'P-Pan ([2]; 24 nM): 0.6372 and 0.7412
- Fold change Ac-CoA ([2]; 24 nM): 0.5886 and 0.6667
- Fold change CoA ([2]; 24 nM): 1.122
- Fold change Pan ([2]; 24 nM): 0.8146 and 0.8416
- Fold change 4'P-Pan ([2]; 240 nM): 0.3498 and 0.3568
- Fold change CoA ([2]; 240 nM): 1.064
- Fold change Pan ([2]; 240 nM): 1.253 and 0.7224
- effect on endogenous metabolites ([2]; dose-dependent): reduced acetyl-CoA and 4-phosphopantothenate levels
- % Inhibition of Control Specific Binding [3]: -6.2% and -3.3% and -4.75%
- % Inhibition of Control Specific Binding [4]: -13.7% and -11% and -12.35%
- % Inhibition of Control Specific Binding [5]: -14.6% and -4.9% and -9.75%
- % Inhibition of Control Specific Binding [6]: -6.1% and -7.7% and -6.9%
- % Inhibition of Control Specific Binding [7]: -7.9% and -12.3% and -10.1%
- % Inhibition of Control Specific Binding [8]: -9.6% and -3.5% and -6.55%
- % Inhibition of Control Specific Binding [9]: -1.3% and -5.4% and -3.35%
- % Inhibition of Control Specific Binding [10]: 7.4%
- % Inhibition of Control Specific Binding [11]: -14.2%
- % Inhibition of Control Specific Binding [12]: -2.9% and 0.3% and -1.3%
- % Inhibition of Control Specific Binding [13]: -1.9% and 2.9% and 0.5%
- % Inhibition of Control Specific Binding [14]: -8.7% and -7.1% and -7.9%
- % Inhibition of Control Specific Binding [15]: -10.1% and -0.3% and -5.2%
- % Inhibition of Control Specific Binding [16]: 0.2% and 8.4% and 4.3%
- % Inhibition of Control Specific Binding [17]: 3.7% and -4.8% and -0.55%
- % Inhibition of Control Specific Binding [18]: -8.1% and -6.5% and -7.3%
- %Viability (rat primary hepatocytes; Batch R14I19, 0.1 µM): 103%
- %Viability (rat primary hepatocytes; Batch R14I19, 0.5 µM): 105%
- %Viability (rat primary hepatocytes; Batch R14I19, 1 µM): 101%
- %Viability (rat primary hepatocytes; Batch R14I19, 5 µM): 101%
- %Viability (rat primary hepatocytes; Batch R14I19, 10 µM): 101%
- %Viability (rat primary hepatocytes; Batch R17G25, 0.1 µM): 111%
- %Viability (rat primary hepatocytes; Batch R17G25, 0.5 µM): 109%
- %Viability (rat primary hepatocytes; Batch R17G25, 1 µM): 111%
- %Viability (rat primary hepatocytes; Batch R17G25, 5 µM): 106%
- %Viability (rat primary hepatocytes; Batch R17G25, 10 µM): 106%
- IC50 (rat primary hepatocytes; primary rat hepatocytes): > 10000 nM
